Measurements published in ChEMBL document CHEMBL1201862, “PubChem BioAssay data set” (2004).
The source made the active and inactive calls.

What was measured:
Large T antigen = Large T antigen (Simian virus 40, UniProt P03070); type: functional, Betapolyomavirus macacae;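 note: Confirmatory-stage PubChem screen for compounds that inhibit SV40 T antigen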
[1] = target: T1, C-C chemokine receptor type 6 (Homo sapiens, UniProt P51684); assay: CCR6 receptor antagonists, dose response, cell-based, luminescent beta-arrestin readout (AID 504728); type: functional
T1 sequence (P51684 whole entry): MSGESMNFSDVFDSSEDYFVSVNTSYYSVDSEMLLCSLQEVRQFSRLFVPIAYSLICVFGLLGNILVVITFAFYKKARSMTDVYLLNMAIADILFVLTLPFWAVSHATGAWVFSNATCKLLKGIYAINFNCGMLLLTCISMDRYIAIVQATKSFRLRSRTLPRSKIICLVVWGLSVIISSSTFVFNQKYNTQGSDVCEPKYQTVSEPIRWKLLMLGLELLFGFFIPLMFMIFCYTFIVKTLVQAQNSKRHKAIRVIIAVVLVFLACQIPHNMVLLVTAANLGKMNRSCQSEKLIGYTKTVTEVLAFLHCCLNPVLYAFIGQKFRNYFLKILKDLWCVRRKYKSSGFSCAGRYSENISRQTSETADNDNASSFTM

Beta-galactosidase = Beta-galactosidase (Escherichia coli, UniProt Q8VNN2); assay: beta-galactosidase enzyme inhibitors and activators, dose response, artefact control for CCR6 antagonist project, biochemical, E. coli enzyme, set 3 (AID 504712); type: functional
Chain of Beta-galactosidase (Q8VNN2 whole entry): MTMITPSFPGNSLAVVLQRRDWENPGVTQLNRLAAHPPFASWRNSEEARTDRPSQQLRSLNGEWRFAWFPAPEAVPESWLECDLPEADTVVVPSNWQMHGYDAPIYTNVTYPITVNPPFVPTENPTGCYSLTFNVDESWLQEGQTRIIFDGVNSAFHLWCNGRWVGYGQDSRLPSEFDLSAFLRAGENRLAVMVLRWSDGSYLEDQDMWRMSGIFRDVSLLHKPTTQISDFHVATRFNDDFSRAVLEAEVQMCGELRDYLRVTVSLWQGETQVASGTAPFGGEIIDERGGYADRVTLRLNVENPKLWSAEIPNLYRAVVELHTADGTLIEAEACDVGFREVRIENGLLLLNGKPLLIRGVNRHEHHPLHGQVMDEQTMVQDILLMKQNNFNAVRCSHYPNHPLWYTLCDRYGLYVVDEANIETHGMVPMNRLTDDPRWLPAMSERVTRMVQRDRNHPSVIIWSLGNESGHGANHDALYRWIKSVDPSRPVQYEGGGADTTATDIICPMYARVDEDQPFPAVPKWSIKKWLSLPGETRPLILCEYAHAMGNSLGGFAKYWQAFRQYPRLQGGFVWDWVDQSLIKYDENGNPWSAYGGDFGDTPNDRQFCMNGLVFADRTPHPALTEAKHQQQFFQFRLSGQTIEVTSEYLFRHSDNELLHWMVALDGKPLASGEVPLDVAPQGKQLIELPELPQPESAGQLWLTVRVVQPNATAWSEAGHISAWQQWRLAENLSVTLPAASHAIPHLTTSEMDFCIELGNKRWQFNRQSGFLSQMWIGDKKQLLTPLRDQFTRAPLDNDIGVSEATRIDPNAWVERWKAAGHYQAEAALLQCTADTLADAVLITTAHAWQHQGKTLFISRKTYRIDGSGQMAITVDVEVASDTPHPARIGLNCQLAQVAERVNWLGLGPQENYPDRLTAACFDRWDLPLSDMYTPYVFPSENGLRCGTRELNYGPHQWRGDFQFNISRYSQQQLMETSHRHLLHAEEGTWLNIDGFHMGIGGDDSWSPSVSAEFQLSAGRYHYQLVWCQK

[2] = target: Glucose-6-phosphate 1-dehydrogenase (Homo sapiens, UniProt P11413); assay: human G6PD enzyme inhibitors, dose response, selectivity assay for P. falciparum G6PD inhibitor project, biochemical, fluorescence (AID 504792); type: functional
Cytochrome P450 3A4 = Cytochrome P450 3A4 (Homo sapiens, UniProt P08684);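 note: CYP3A4 tested as one member of a cytochrome P450 panel screen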
Chain of Cytochrome P450 3A4 (P08684 whole entry): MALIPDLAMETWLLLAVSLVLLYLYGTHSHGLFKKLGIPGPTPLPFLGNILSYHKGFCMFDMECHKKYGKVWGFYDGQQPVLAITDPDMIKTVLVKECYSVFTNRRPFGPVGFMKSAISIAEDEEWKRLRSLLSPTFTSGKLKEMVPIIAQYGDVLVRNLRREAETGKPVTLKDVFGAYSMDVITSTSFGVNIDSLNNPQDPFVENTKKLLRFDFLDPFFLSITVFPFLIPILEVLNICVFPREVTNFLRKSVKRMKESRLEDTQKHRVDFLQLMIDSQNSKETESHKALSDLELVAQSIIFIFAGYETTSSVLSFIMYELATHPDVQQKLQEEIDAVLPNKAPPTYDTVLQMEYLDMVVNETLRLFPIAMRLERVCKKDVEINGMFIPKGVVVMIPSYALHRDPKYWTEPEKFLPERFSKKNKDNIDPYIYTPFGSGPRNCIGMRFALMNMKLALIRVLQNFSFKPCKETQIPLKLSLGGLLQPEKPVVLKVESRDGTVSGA

SUMO-activating enzyme = SUMO-activating enzyme (Homo sapiens, UniProt Q9UBT2); assay: SUMOylation inhibitor hit validation, confirmation, SUMOylation inhibitor project, biochemical, AlphaScreen (AID 2018); type: functional
Chain of SUMO-activating enzyme (Q9UBE0 whole entry): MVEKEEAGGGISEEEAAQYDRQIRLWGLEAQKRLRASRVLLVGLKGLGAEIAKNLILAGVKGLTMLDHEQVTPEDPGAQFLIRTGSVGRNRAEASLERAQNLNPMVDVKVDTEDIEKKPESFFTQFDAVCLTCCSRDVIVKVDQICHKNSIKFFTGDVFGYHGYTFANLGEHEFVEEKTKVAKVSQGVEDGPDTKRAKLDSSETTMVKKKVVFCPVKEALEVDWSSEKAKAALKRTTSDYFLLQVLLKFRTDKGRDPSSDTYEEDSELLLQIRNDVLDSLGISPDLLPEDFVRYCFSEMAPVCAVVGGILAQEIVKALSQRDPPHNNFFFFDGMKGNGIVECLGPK
Chain of SUMO-activating enzyme (Q9UBT2 whole entry): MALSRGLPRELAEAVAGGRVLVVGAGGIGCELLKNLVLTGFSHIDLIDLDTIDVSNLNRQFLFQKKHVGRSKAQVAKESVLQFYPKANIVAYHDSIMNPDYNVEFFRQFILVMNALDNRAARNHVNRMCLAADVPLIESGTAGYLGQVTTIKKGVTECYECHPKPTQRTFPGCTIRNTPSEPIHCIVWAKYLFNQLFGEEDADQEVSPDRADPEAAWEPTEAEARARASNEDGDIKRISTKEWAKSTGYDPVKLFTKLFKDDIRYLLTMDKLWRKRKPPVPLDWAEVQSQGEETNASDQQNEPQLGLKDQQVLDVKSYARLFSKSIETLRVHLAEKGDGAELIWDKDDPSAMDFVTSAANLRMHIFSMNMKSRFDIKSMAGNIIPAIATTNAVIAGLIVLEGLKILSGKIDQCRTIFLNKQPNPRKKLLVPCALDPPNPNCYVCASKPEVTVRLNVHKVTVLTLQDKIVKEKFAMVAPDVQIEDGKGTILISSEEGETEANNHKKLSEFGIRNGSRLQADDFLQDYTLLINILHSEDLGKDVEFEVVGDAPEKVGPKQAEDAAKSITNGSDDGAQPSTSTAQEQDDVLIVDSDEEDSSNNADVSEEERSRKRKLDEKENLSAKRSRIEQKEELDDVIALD

Cytochrome P450 2C9 = Cytochrome P450 2C9 (Homo sapiens, UniProt P11712)
Chain of Cytochrome P450 2C9 (P11712 whole entry): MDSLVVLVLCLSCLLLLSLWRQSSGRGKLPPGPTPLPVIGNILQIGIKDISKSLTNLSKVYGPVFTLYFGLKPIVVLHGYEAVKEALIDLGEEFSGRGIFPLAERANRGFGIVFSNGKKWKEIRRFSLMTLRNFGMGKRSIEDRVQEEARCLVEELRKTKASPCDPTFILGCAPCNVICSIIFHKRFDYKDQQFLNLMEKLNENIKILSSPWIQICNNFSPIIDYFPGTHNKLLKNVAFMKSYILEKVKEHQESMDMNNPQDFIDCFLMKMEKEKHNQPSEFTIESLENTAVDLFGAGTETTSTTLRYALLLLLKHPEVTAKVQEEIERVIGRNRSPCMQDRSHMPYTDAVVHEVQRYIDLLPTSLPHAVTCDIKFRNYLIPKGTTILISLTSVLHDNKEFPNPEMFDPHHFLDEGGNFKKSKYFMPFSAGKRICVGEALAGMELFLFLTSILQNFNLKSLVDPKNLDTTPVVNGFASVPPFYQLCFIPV

Cytochrome P450 1A2 = target: T2, Cytochrome P450 1A2 (Homo sapiens, UniProt P05177);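 note: PubChem cytochrome P450 panel assay, CYP1A2 panel member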
T2 sequence (P05177 whole entry): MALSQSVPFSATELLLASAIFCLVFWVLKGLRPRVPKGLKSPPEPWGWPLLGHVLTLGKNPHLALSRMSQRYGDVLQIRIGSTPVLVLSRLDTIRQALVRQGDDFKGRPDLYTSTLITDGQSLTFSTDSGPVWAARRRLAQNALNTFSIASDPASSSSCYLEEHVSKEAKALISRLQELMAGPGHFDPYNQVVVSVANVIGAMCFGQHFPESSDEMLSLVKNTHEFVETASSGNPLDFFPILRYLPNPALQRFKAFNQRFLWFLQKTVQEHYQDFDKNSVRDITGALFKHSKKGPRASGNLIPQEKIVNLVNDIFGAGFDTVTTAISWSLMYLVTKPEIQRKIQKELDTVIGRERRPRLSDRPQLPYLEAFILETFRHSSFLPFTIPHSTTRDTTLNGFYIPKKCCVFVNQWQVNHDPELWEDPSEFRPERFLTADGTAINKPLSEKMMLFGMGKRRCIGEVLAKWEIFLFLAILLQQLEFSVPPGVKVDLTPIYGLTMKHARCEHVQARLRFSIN

[3] = target: T3, Calpain-2 catalytic subunit (Sus scrofa, UniProt P43367); assay: pig calpain II inhibitor potency, dose response, biochemical, fluorogenic peptide substrate (AID 1420); type: functional
T3 sequence (P43367 whole entry): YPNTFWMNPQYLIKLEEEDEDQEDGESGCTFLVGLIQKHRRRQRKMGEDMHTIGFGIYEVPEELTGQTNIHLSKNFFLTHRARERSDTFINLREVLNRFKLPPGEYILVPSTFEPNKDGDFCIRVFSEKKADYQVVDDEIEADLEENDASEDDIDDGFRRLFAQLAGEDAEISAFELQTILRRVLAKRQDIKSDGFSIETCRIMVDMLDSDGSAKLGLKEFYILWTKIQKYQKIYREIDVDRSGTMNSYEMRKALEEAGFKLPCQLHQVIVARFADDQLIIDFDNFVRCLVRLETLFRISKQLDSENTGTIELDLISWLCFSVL

HEK293 [4] = assay: cells; type: functional, cell-based; details: Homo sapiens
Protein skinhead-1 = target: T4, Protein skinhead-1 (Caenorhabditis elegans, UniProt P34707); type: functional
T4 sequence (P34707 whole entry): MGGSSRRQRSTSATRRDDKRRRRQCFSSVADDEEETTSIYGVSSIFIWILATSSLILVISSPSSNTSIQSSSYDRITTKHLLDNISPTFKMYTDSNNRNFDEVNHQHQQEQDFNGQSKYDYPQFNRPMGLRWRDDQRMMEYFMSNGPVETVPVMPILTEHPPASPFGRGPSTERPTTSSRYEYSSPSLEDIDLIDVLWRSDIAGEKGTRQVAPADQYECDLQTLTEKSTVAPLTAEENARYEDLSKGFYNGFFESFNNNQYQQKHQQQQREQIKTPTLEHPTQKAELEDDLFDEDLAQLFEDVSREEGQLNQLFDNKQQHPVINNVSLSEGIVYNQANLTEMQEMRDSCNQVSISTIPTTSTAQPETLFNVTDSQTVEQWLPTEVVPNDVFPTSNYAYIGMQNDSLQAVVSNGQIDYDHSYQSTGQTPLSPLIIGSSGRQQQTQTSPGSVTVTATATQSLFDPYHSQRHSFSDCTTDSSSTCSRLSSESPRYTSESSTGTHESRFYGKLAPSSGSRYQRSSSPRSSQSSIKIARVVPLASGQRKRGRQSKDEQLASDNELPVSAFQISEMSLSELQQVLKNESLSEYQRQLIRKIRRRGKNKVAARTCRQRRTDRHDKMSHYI

[5] = target: T5, Acyl-homoserine lactone acylase PvdQ (Pseudomonas aeruginosa (strain LESB58), UniProt Q9I194); assay: P. aeruginosa PvdQ acylase inhibitors, dose response, biochemical, fluorescence, plate reader and imaging, cherry-picks (AID 493231)
T5 sequence (Q9I194 whole entry): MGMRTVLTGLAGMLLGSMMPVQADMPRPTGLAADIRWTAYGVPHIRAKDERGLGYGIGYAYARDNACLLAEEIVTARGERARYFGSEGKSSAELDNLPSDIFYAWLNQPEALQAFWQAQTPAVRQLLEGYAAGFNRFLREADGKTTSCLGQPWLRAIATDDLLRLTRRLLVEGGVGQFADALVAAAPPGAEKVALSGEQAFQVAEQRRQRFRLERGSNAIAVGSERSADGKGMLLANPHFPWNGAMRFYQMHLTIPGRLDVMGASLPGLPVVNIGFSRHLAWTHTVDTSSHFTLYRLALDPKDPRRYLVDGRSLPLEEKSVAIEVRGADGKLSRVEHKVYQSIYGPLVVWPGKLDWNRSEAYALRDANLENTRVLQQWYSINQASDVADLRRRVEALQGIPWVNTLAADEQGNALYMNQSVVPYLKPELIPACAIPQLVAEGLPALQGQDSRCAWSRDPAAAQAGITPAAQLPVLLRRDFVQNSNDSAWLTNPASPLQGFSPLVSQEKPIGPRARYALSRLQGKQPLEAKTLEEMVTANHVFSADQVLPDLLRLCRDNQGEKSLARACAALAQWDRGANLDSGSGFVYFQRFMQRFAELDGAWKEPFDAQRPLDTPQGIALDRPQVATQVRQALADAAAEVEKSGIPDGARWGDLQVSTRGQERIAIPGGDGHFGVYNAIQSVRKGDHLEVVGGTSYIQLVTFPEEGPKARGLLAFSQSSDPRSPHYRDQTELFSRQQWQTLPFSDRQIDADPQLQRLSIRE

HEK293 [6] = assay: NOD2 signaling inhibitors in MDP-stimulated cells, cell-based, uHTS, luminescence (AID 2001); type: functional; details: Homo sapiens
HEK293 [7] = assay: NOD1 signaling inhibitors, primary screen, cell-based, luminescence, uHTS (AID 1578); type: functional; details: Homo sapiens
HEK293 [8] = assay: cells; type: functional, cell-based; details: Homo sapiens; remark: listed apart in the source
[9] = Luminescence Cell-Based Dose Retest to Confirm Inhibitors of Cancer Stem Cells. [Related pubchem assays (depositor defined):AID2717, AID2721]; type: functional; details: Homo sapiens
[10] = target: DNA dC->dU-editing enzyme APOBEC-3A (Homo sapiens, UniProt P31941); assay: APOBEC3A DNA deaminase inhibitors, dose response, biochemical (AID 504722); type: functional
Chain of DNA dC->dU-editing enzyme APOBEC-3A (P31941 whole entry): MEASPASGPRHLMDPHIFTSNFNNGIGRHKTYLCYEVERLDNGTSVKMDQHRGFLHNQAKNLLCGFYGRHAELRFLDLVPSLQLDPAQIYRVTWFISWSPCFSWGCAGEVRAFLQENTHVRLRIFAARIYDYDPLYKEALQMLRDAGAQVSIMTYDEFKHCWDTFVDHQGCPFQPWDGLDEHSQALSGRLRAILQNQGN

[11] = target: DNA dC->dU-editing enzyme APOBEC-3G (Homo sapiens, UniProt Q9HC16); assay: Dose Response confirmation of small molecule APOBEC3G DNA Deaminase Inhibitors via a fluorescence-based single-stranded DNA deaminase assay. [Related pubchem assays (depositor defined):AID493012, AID493028]; type: functional
Chain of DNA dC->dU-editing enzyme APOBEC-3G (Q9HC16 whole entry): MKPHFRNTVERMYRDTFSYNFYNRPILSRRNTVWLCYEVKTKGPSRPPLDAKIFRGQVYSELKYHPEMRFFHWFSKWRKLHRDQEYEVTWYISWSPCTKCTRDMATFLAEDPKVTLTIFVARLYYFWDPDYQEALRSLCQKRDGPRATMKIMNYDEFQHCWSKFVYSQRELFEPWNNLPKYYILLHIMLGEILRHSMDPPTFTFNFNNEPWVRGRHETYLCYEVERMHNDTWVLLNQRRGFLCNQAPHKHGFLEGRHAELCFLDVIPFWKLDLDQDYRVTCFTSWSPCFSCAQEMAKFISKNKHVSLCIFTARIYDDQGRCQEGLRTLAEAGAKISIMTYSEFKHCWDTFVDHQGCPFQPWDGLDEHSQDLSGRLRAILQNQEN

Melanocortin receptor 4 = Melanocortin receptor 4 (Homo sapiens, UniProt P32245); assay: MC4R antagonist potency on cAMP, dose response, cell-based, TR-FRET, biased antagonists (AID 602298); type: functional;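 note: antagonist potency against agonist-stimulated cAMP production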
[12] = microbe, parasite or virus in culture; type: functional; details: Mycobacterium tuberculosis
[13] = target: Alkaline phosphatase, placental type (Homo sapiens, UniProt P05187); assay: PLAP enzyme inhibitors, confirmation, biochemical, luminescence (AID 1512); type: functional
Chain of Alkaline phosphatase, placental type (P05187 whole entry): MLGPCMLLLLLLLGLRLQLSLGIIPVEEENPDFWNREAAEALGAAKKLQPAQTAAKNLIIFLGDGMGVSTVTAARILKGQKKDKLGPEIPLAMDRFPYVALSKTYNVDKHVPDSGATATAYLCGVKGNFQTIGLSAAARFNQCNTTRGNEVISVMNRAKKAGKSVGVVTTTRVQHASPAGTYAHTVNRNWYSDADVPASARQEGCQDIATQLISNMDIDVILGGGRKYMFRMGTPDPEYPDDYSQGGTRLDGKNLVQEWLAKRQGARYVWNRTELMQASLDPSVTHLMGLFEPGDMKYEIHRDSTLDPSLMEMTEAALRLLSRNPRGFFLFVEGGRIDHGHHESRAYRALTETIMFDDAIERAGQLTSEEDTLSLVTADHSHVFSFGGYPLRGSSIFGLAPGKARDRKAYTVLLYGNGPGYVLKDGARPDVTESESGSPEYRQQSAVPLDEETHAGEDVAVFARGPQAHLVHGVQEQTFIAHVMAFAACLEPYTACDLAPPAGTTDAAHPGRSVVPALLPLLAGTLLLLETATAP

[14] = nonselective inhibitors of cellular cAMP signaling, dose response, counter-screen for MC4R biased antagonist project, cell-based, TR-FRET cAMP detection (AID 602305); type: functional;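 note: U2OS cells stimulated with forskolin near its EC80 as the cAMP inducer; potency is for inhibition of forskolin-stimulated cAMP signaling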

Chain of Large T antigen (P03070 whole entry): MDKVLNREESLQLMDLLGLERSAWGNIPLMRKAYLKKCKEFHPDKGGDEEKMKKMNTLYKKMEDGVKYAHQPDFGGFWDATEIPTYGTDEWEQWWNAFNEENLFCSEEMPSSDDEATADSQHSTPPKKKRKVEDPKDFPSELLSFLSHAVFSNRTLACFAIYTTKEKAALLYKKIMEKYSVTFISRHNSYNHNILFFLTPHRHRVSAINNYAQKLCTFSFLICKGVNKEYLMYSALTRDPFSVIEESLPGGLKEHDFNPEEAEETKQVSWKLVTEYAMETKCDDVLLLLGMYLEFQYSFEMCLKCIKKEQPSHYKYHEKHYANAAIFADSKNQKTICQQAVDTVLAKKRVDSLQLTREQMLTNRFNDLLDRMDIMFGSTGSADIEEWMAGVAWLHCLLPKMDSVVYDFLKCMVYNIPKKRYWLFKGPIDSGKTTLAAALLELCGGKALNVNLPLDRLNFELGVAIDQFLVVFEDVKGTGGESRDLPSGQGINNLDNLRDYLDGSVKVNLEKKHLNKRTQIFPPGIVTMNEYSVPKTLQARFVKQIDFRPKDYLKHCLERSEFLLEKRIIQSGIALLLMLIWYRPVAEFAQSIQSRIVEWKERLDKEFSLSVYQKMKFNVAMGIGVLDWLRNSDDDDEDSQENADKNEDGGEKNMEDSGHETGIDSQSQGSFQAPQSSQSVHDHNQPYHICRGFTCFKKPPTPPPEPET

COc1ccccc1N1C(=O)C=C(Sc2nc(C)cc(C)n2)C1=O
IC50 (Large T antigen): 24.3 µM (active) | IC50 [1]: > 66.6 µM (inactive) | IC50 (Beta-galactosidase): > 66.6 µM (inactive) | IC50 [2]: > 80 µM (inactive)

Cc1ccccc1NC(=O)c1ccc(N/N=C/c2ccccc2O)c([N+](=O)[O-])c1
AC50 (Cytochrome P450 3A4): 4.47 µM (inconclusive) | IC50 (SUMO-activating enzyme): 67.3 µM (active) | AC50 (Cytochrome P450 2C9): inconclusive | AC50 (Cytochrome P450 1A2): 14.1 µM (inconclusive) | IC50 [3]: 18.9 µM (not active)

Clc1ccc(Nc2ncnc3ccc(Br)cc23)cc1
IC50 (HEK293 [4]): 0.95 µM (active) | IC50 (Protein skinhead-1): > 100 µM (inactive) | AC50 [5]: 37.8 µM (active) | IC50 (HEK293 [6]): 1.47 µM (active) | EC50 (HEK293 [7]): 3.06 µM (active) | IC50 (HEK293 [8]): > 20 µM (inactive) | AC50 [9]: 4.4 µM (active)

Sc1cnc2ccccc2n1
IC50 [10]: > 100 µM (inactive) | IC50 [11]: 7.85 µM (active)

c1ccc(Cn2c(CNc3nc4ccccc4n3CCN3CCCCC3)nc3ccccc32)cc1
IC50 (Melanocortin receptor 4): > 64.6 µM (inactive) | CC50 [12]: 27.1 µM (active) | IC50 [13]: > 100 µM (inactive) | IC50 [14]: > 64.6 µM (inactive)
